Test results taken from US20260226011A1, “COMPOSITIONS AND METHODS FOR TREATING OCULAR DISEASES OR DISORDERS” (Translatum Medicus Inc., priority 2023, published 2026).

Tests used:
[1] = Acid hydrolysis of bindarit conjugates in 12M HCl, read by NMR; type: physicochemical; settings: for hydrolysis in 12M HCl: 12M HCl at 40° C., overnight; for conjugate hydrolized (acid hydrolysis): 12M HCl, 40° C., stirred 16 hours, NMR in D2O
Procedure: Acid hydrolysis: 4 mg bindarit-taurine conjugate was added to 4 mL 12M HCl. The reaction mixture was heated to 40° C. and stirred for 16 hours, followed by concentration of the reaction mixture. About 70% (mol %) of the bindarit-taurine conjugate was hydrolized as identified by NMR in D2O (FIG. 10).
3 mg bindarit-carnosine conjugate was added to 3 mL 12M HCl. The reaction mixture was heated to 40° C. and stirred for 16 hours, followed by concentration of the reaction mixture. About 50% (mol %) of the bindarit-carnosine conjugate was hydrolized as identified by NMR in D2O (FIG. 12).

[2] = test system: monocyte chemoattractant protein-1 (MCP-1); experiment: MCP-1 (ccl2) mRNA expression (qPCR) after LPS stimulation of PMA-differentiated THP-1 macrophages; type: cell-based, Human; settings: 150 μM compound, LPS 100 ng/ml for 1 hour, qPCR delta delta Ct (FIG. 1)
Procedure: Human THP-1 monocytes were seeded at 5×10^5-9×10^5 in a 6-well plate. Phorbol myristate acetate (5 ng/ml, PMA) was added for 48-72 hours, to induce differentiation from monocytes to macrophages. Cells were then starved for 3 hours.
Cells were harvested in RNALater (Qiagen), and prepared for quantitative polymerase chain reaction (qPCR). Total RNA was isolated using Trizol Reagent (Life Technologies) based on the manufacturer's protocol and its quantity and quality checked with a Nanodrop 2000 spectrophotometer (Thermo Scientific, USA). QuantiTect Reverse Transcription Kit with separate genomic DNA removal step (Qiagen) was used based on the manufacturer's protocol. Briefly, 0.5 μg total RNA was used for each sample during reverse transcription and the resulting cDNA solution was further diluted to 10 ng/ul with nuclease free water and stored at-20 C.
PowerUp SYBR Green Master Mix (ThermoFisher Scientific) was used for quantitative PCR based on manufacturer's protocol. […]
Relative quantification method based on delta delta Ct was used for comparison of gene expression levels in various arms. Briefly, relative quantification and statistical analysis were performed using Relative Expression Software Tool-Multiple Condition Solver (REST-MCS, V2) based on the protocol by M. W. Pfaffl & G. W. Horgan (2006), which is incorporated by reference herein in its entirety.

SMILES	hydrolysis in 12M HCl [1]	conjugate hydrolized (acid hydrolysis) [1]	ability to reduce MCP-1 mRNA [2]
CC(C)(OCc1nn(Cc2ccccc2)c2ccccc12)C(=O)NCCS(=O)(=O)O [bindarit-taurine conjugate]	70%	About 70 % (mol %)	
CCOC(=O)C(C)(C)OCc1nn(Cc2ccccc2)c2ccccc12 [bindarit ethyl ester, ethyl 2-((1-benzl-1H-indazol-3-yl)methoxy)-2-methylpropanoate]			equally as efficacious as bindarit
CC(C)(OCc1nn(Cc2ccccc2)c2ccccc12)C(=O)NCCC(=O)N[C@@H](Cc1cnc[nH]1)C(=O)O [bindarit-carnosine conjugate]	50%	About 50 % (mol %)	
